Values quoted from earlier work, collected in patent US20220018045A1, “ELECTROSPUN COAXIAL POLYMER FIBERS FOR CONTROLLED INSECT REPELLENT RELEASE” (The Government of the United States of America, as …, priority 2020, published 2022).

Details: ambient conditions

For CCC(C)OC(=O)N1CCCCC1CCO (stereo not shown) [picaridin, 1-(1-methylpropoxycarbonyl)-2-(2-hydroxyethyl)piperidine], the vapor pressure is listed as ~3.3×10^−2 Pa.
